# Laboratory results as given in patent publication US20240327456A1, “CANCER THERAPEUTICS” (UNIVERSITAT DE BARCELONA, priority 2021, published 2024).
# “Also recorded” adds a separate entry of the source. Where two headings read alike, the source gives them in different places. Numbered stars: 1 amine (or outer) side, 2 acyl side, 3 side chain; on linkers, the order of the positions; unused ones are H or OH. Square brackets hold non-standard residues; d marks the D form. Peptide text beside a SMILES is read from it. * marks the point of attachment. Diphenylacetyl = O=C(C(c1ccccc1)c1ccccc1)*; Phe(4-Me) = Cc1ccc(C[CH](N)C(=O)O)cc1; NMeβAla = CN(CCC(=O)[*:2])[*:1]; Cha = N[CH](CC1CCCCC1)C(=O)O; Chg = N[CH](C(=O)O)C1CCCCC1; X1 = C1CCC2(CC1)CCN(*)CC2; Dab = NCC[CH](N)C(=O)O; Bz = O=C(c1ccccc1)*
# What was measured:
# [1] = Solubility in water at 5% DMSO; format: physicochemical
# Description: (§1) The methods used are well known and would be known to one of skill in the art. As a control, we evaluated the solubility in water which contained 5% DMSO to identify any possible issue related with a low solubility. Data are expressed as the mean±SD.
# [2] = system: pancreatic adenocarcinoma human cell lines (MPanc-96, HPAF-II, PA-TU-8902, SW1990, PA-TU 8988T, PANC-1); format: cell-based; settings: for specificity cancer cells versus normal cells (cell viability): cancer cell lines versus hTERT-RPE, MTS
# Method: (§2) Cells cultured in 10% FCS were treated with compound (I) in a dose range from 0 to 25 µM and incubated for 24 h, when cell viability was determined by MTS assay. Experiment was repeated 3 times. Differences were assessed using one-way ANOVA and Tukey Multiple Comparisons Test and considered significant when p≤0.05.
# (§3) 10,000 cells in 50 μL of 10% FBS-containing medium, were cultured for 24 h and then treated with the drugs (50 μL final volume) for a further 24 h in each well of a 96-well plate (100 μL final volume). MTS viability assay (CellTiter 96® Aqueous One Solution Cell Proliferation Assay, Promega G3580) was performed following the manufacturer's specifications. The absorbance of each well was measured with a multimode plate reader (Spark, Tecan) at 490 nm. The percentage of cell viability was calculated by dividing the absorbance of each well by the average absorbance of the control wells (which had no significant deviation when Student's t-test was applied).
# (§4) We next incubated IPR-473 at several concentrations with different cancer cell lines and a normal cell line (-hTERT-RPE cells). Cell viability was measured by a MTS cell proliferation assay. […] Cells were placed in a 96-well plate culture containing 10% FBS (Bilogical Industries)-containing medium. (10000 cell per well). These cells were then cultured for 24 hours and then treated with IPR-473 at concentrations of 10 μM, 15 μM, 20 μM and 25 μM for a further 24 hours incubation.
# The different cell lines used included human pancreatic cancer cells MPANC-96, human pancreatic adenocarcinoma cells HPAF-II, human pancreatic grade II adenocarcinoma PA-TU, human pancreatic ductaladenocarcinoma SW1990, human pancreas adenocarcinoma 8988-T and human pancreatic ductal carcinoma PANC-1. Each of these comprises a pancreatic tumor cell line. The control as stated was hTERT-RPE cells and that are not cancerigenous.
# PAMPA assay = format: in vitro ADME; settings: for Pe / Retention %: mean±SD
# Description: As part of our analysis, we evaluated IP-14-01, IP-14-03 and IP-14-08 and their biophysical properties by studying them using a solution of 5% DMSO in water. We conducted a permeability through biological barriers (PAMPA assay) and their internalization in SH-SY5Y cells.
# as §1
# [3] = system: Ras signaling pathway (Raf/ERK and PI3K/AKT); assay: Western blot of RAS signaling pathways in EGF-stimulated serum starved hTERT-RPE cells; format: cell-based, human; settings: 50 μM, 0.5% DMSO, 2 h before EGF 50 ng/mL 10 min
# Method: (§5) Cells were seeded in a media containing 10% FBS for 24 hours and were serum starved (0.5%) for the next 24 hours. Afterwards, they were incubated with different concentrations of the compounds for 2 hours. A successive treatment for 10 minutes with EGF (50 ng/mL) (Sigma-Aldrich) was performed in order to activate cell signaling.
# Proteins were resolved by SDS-PAGE and transferred onto PVDF membranes (Immobilon-P, Millipore). Non-specific binding of the antibodies was assessed by incubating the membranes for 1 hour at room temperature with a buffer composed of 20 mM Tris-HCl pH 7.5, 150 mM NaCl, 0.05% Tween 20 and 5% bovine serum albumin. Protein expression was determined by probing the blots overnight at 4° C. with the specified antibodies:anti-c-RAF (BD Transduction 610151, 1:500); anti-phospho-c-RAF S338 (Cell Signaling 9427, 1:500); anti-PI3Kp110a (Cell Signaling 4249, 1:1000); anti-AKT (Cell Signaling 9272, 1:1000); anti-phospho-AKT S473 (Cell Signaling 4060, 1:1000); anti-phospho-AKT Thr308 (Cell Signaling 4056, 1:1000); anti-p44/42 MAPK (ERK1/2) (Cell Signaling 9102, 1:2000); anti-phospho-p44/42 MAPK(ERK1/2) T202/Y204 (Cell Signaling 4370, 1:2000); anti-GAP120 (Santa Cruz SC-63, 1:200); anti-HA (Sigma-Aldrich H6908, 1:1000); or anti-α-tubulin (Sigma-Aldrich T9026, 1:2000). Next, after washing the membranes they were incubated with the corresponding HRP-coupled secondary antibodies (goat anti-rabbit BioRad 170-6515 or goat anti-mouse BioRad 170-6516, 1:3000) for 60 minutes at room temperature and washed again. Protein detection was performed by enhanced chemiluminescence (EZ-ECL, Biological Industries). Emitted light was captioned and quantified (ChemiDoc, BioRad).
# For analysis of RAS signalling, cells were lysed in a buffer containing 67 mM Tris-HCl pH 6.8 and 2% SDS and then the samples were heated at 97° C. for 15 minutes. After this, the protein concentration of the lysates was assayed using the Lowry method. An aliquot of 15 μg of protein per sample was loaded onto the gels.
# GAP120 detection was used as control.
# To consider a peptidomimetic as a positive hit, it should inhibit the activity of the two protein cascades, and as a consequence the phosphorylation of the RAF (P-RAF), AKT (P-AKT) and ERK (P-ERK) should not be observed.
# [4] = Solubility in PBS with 15% β-cyclodextrin; format: physicochemical; settings: 1 mM, 24 hours agitation, supernatant by HPLC; mean±SD
# Method: xxxxx Furthermore, an additional effort was done to reevaluate those peptidomimetics from the first generation that were not soluble in the in vitro assay conditions or formed aggregates as described above when incubated with the RPE cells.
# We then put these peptidomimetics under constant agitation for 24 hours. […] Data are expressed as the mean±SD.
# hTERT-RPE cells = format: cell-based, human; settings: at the concentrations of the tumor cell IC50 (approximately 20 μM), 24 h, MTS
# Method: as §2, §3
# as §4, with “These cells were then cultured for 24 hours and then treated with IPR-473 at concentrations of 10 μM, 15 μM, 20 μM and 25 μM for a further 24 hours incubation.” left out
# [5] = molecular target: T1, HA-KRASG12V with C-RAF or with PI3K (Homo sapiens, UniProt P01116, G12V); assay: Co-immunoprecipitation of HA-KRASG12V with C-RAF or PI3K in Hela cells; format: cell-based; settings: 100 µM for 2 h, EGF 10 min, starved Hela cells expressing HA-KRASG12V
# T1 construct: expressed in transfected cells; host or cells: HeLa cells, Lipofectamine 2000, plasmid pEF-HA-KRASG12V
# Method: Immunoprecipitation was performed with anti-HA antibodies and Western blot of the bound (BO) and input (IN) fractions with anti-p110αPI3K and anti-C-RAF. Experiments were repeated at least three times.
# as §5, with “h” for “hours”, “starved” for “starved (0.5%)”, “h.” for “hours.”, “min” for “minutes”, “ng/mL; Sigma-Aldrich)” for “ng/mL) (Sigma-Aldrich)”
# HeLa cells were transfected with pEF-HA-KRASG12V plasmid, obtained as described in C. Lopez-Alcala et al. (“Identification of essential interacting elements in K-Ras/calmodulin binding and its role in K-Ras localization.”; J. Biol. Chem. 2008; April 18; 283(16):10621-31. doi: 10.1074/jbc.M706238200. Epub 2008 Jan. 8. PMID: 18182391). Lipofectamine®2000 Transfection Reagent (Invitrogen) was used as a transfection method following the manufacturer's instructions.
# Cells were transfected with pEF-HA-KRASG12V plasmid for 24 h and starved for the next 24 h before treatment with the peptides and EGF. Next, an IP with anti-HA antibody crosslinked to agarose beads was performed. […]
smiles,measurement,setting,value
CC(NC(=O)C(CN)NC(=O)CCN(C)C(=O)C(Cc1ccc(-c2ccccc2)cc1)NC(=O)C(c1ccccc1)c1ccccc1)C(=O)N1CCCC1 (stereo not shown) [IP-14-01],Solubility (in words),[1],good solubility
same,solubility,[1],1333 ± 13 µM
same,specificity cancer cells versus normal cells (cell viability),[2],did not show cell-line specificity
same,Transport %,PAMPA assay,0%
same,Pe,PAMPA assay,5.6e-10 ± 3.1e-10 cm/s
same,Retention %,PAMPA assay,55.7 ± 7.1%
same,"Inhibition of RAS-effectors protein cascades (P-RAF, P-AKT, P-ERK) by Western blot",[3],able to inhibit the two RAS-effectors protein cascades; also recorded: most potent inhibitor
NCCCCC(NC(=O)C(Cc1ccccc1)NC(=O)C(CC1CCCC1)NC(=O)c1c2ccccc2cc2ccccc12)C(=O)N1CCCC1 (stereo not shown) [IP-14-02],"Inhibition of RAS-effectors protein cascades (P-RAF, P-AKT, P-ERK) by Western blot",[3],able to inhibit the RAF and AKT but not ERK
CC(NC(=O)C(NC(=O)CCN(C)C(=O)C(CN)NC(=O)C(c1ccccc1)c1ccccc1)C1CCCCC1)C(=O)N1CCC2(CCCCC2)CC1 (stereo not shown) [IP-14-03],Solubility (in words),[1],good solubility
same,solubility,[1],549 ± 90 µM
same,Transport %,PAMPA assay,0%
same,Pe,PAMPA assay,1.6e-09 ± 3.6e-10 cm/s
same,Retention %,PAMPA assay,77.9 ± 2.4%
same,"Inhibition of RAS-effectors protein cascades (P-RAF, P-AKT, P-ERK) by Western blot",[3],able to inhibit the two RAS-effectors protein cascades
CC(C)CC(NC(=O)CCCN(C)C(=O)C(CCCN)NC(=O)C(Cc1cccc2ccccc12)NC(=O)c1c2ccccc2cc2ccccc12)C(=O)N1CCC2(CCCCC2)CC1 (stereo not shown) [IP-14-04],Conc. in PBS β-cyclodextrin 15%,[4],780 ± 30 µM
CC(C)CC(NC(=O)COc1ccc(C(C)(C)C)cc1)C(=O)NC(Cc1cccc2ccccc12)C(=O)NC(CCCCN)C(=O)N1CCCCC1 (stereo not shown) [IP-14-05],Conc. in PBS β-cyclodextrin 15%,[4],849 ± 43 µM
CCC(C)C(NC(=O)C(c1ccccc1)c1ccccc1)C(=O)NC(CCc1ccccc1)C(=O)NC(CCCCN)C(=O)N1CCC2(CCCCC2)CC1 (stereo not shown) [IP-14-07],Conc. in PBS β-cyclodextrin 15%,[4],766 ± 19 µM
CC(C)CC(NC(=O)C(Cc1ccccc1)NC(=O)C1CCCN1C(=O)C(CCN)NC(=O)c1ccccc1)C(=O)N1CCC2(CCCCC2)CC1 (stereo not shown) [IP-14-08] (Bz-[Dab]PFL-X1; configuration not given here),Solubility (in words),[1]; water at 5% DMSO,good solubility
same,solubility,"[1]; water at 5% DMSO, mean±SD, read-out: Solubility",1320 ± 22 µM
same,Transport %,PAMPA assay,0%
same,Pe,PAMPA assay,0 cm/s
same,Retention %,PAMPA assay,97.6 ± 5.0%
same,"Inhibition of RAS-effectors protein cascades (P-RAF, P-AKT, P-ERK) by Western blot",[3],able to inhibit the two RAS-effectors protein cascades
CC(C)CC(NC(=O)COc1ccc(C(C)(C)C)cc1)C(=O)NC(Cc1cccc2ccccc12)C(=O)NC(CN)C(=O)N1CCC2(CCCCC2)CC1 (stereo not shown) [IP-14-09],Conc. in PBS β-cyclodextrin 15%,[4],949 ± 8 µM
Cc1ccc(CC(NC(=O)C(c2ccccc2)c2ccccc2)C(=O)N(C)CCC(=O)NC(CC2CCCCC2)C(=O)NC(C(=O)N2CCCC2C(N)=O)C2CCCCC2)cc1 (stereo not shown) [IPR-471] (Diphenylacetyl-[Phe(4-Me)][NMeβAla][Cha][Chg]P-NH2; configuration not given here),"Inhibition of RAS-effectors protein cascades (P-RAF, P-AKT, P-ERK) by Western blot",[3],not better than IP-14-01
CC(C)CC(NC(=O)C(CN)N(C)C(=O)CCN(C)C(=O)C(Cc1ccc(-c2ccccc2)cc1)NC(=O)C(c1ccccc1)c1ccccc1)C(=O)N1CCCC1 (stereo not shown) [IPR-473],specificity cancer cells versus normal cells (cell viability),[2],high specificity for pancreatic cancer cell lines
same,"Inhibition of RAS-effectors protein cascades (P-RAF, P-AKT, P-ERK) by Western blot",[3],able to inhibit all the two different protein cascades (RAF/ERK and PI3K/AKT) more effectively than even IP-14-01; also recorded: highest degree of inhibition of the RAS effectors
CC(O)C(NC(=O)CCN(C)C(=O)C(Cc1ccc(-c2ccccc2)cc1)NC(=O)C(c1ccccc1)c1ccccc1)C(=O)NC(C(=O)N1CCCC1)C1CCCCC1 (stereo not shown) [IPR-474],"Inhibition of RAS-effectors protein cascades (P-RAF, P-AKT, P-ERK) by Western blot",[3],not better than IP-14-01
"CC(C)C[C@H](NC(=O)[C@H](CN)N(C)C(=O)CCN(C)C(=O)[C@H](Cc1ccc(-c2ccccc2)cc1)NC(=O)C(c1ccccc1)c1ccccc1)C(=O)N1CCCC1 [compound of formula (I), (S)-N-(3-(((S)-3-amino-1-((S)-4-methyl-1-oxo-1-(pyrrolidin-1-yl)pentan-2-ylamino)-1-oxopropan-2-yl)(methyl)amino)-3-oxopropyl)-3-(biphenyl-4-yl)-2-(2,2-diphenylacetamido)-N-methylpropanamide]",normal cells affected,hTERT-RPE cells,less than 5%
same,IC50,[2]; 24 h,~20 µM
same,PI3K and c-RAF1 interaction with KRAS (co-immunoprecipitation),[5],reduced PI3K and c-RAF1 interaction with KRAS
